Usually melting point stands for the temperature, or range, at which the solid turns liquid.

Consider `CC(C)n1cc2c3c(cccc31)C1CC(C(=O)NC3CCCC3O)CN(C)C1C2` (configuration not stated), for which the melting point lay within 232 to 234 °C.
In turn, `Cc1nc(N2C[C@H](C)N(Cc3ccc(F)cc3)C2=O)sc1C(=O)O` showed a melting point of 208 to 210 °C.
In the case of `NC(=O)N1CCN(CC(O)COc2ccc(O)cc2)CC1` (configuration not stated), the melting point was 198 to 201 °C.
Under `Cc1cn(C2CCc3ccccc3C2)c(=S)n1Cc1ccc(C(=O)O)cc1` (configuration not stated) stands 181 to 182 °C; under `CC1CN(C)CCC1(O)c1cc2ccccc2o1` (configuration not stated), 128 to 130 °C.
Under `COc1cc(OC(C)C)ccc1-c1nc(-c2ccc(OC(C)C)cc2O)nc(-c2ccc(OC(C)C)cc2O)n1` stands 185 to 188 °C; under `O=C(Oc1ccccc1)N1c2ncccc2OCC1OP(=O)(Oc1ccccc1)Oc1ccccc1` (configuration not stated), 82 °C; under `CCCC1CCC(C2CC3(C2)CC(C(F)(F)Oc2cc(F)c(F)c(F)c2)C3)CC1` (configuration not stated), 43 °C.
`CCCCCCCCCCc1ccc(NC(=O)c2cc(Cl)cc(Cl)c2O)cc1` displayed a melting point of 90 to 91 °C.
Under `CCCCCCOC(=O)CCCC(C)(C)c1cc(O)c(C(C)(C)CCCC(=O)OCCCCCC)cc1O` stands 77 to 78 °C; under `COc1ccc(OC)c2c1C(=O)C=C(SCCCCCCO)C2=O`, 87 to 88 °C.
Turning to `COC(=O)c1ccc(C=CC=O)cc1`, the melting point was 99 to 101 °C.
In the case of `Cc1cc(C(C)(C)C)c(O)c(S(N)(=O)=O)c1`, the melting point lay in the range of 114 to 116 °C.
Under `Cn1c(=O)c(Oc2ccc(F)cc2F)cc2cnc(Cl)cc21` stands 168 to 170 °C; under `CCC1(CCCCN2CCN(c3cccc(OC)c3)CC2)C(=O)Nc2ccccc21` (configuration not stated), 123 to 125 °C; under `CCOC(=O)Oc1ncc(F)c(N=CN(C)C)n1`, 124 to 126 °C.
Under `OC[C@@H]1Cc2ccccc2CN1C(=S)Nc1cccnc1` stands 192 °C; under `Nc1sc2c(c1C(=O)c1ccc3ccccc3c1)CCN(Cc1ccccc1Cl)C2`, 169 to 171 °C; under `CNC(=O)NC(=O)C(CC1CCCC1OC1CCCCO1)c1ccc(Cl)c(Cl)c1` (configuration not stated), 68 to 70 °C.
Under `CCOC(=O)c1cn2c3c(c(F)c(F)cc3c1=O)OCC2` stands 265 to 266 °C; under `CC1(c2cccc(NS(C)(=O)=O)c2)C2CN(Cc3ccccc3)CC21` (configuration not stated), 117 to 118 °C.
Compound `NC(=O)c1[nH]c2ccccc2c1Sc1ccccc1` had a melting point of 197 to 198 °C.
The compound `COC1CC(n2cc(C=CBr)c(=O)[nH]c2=O)OC1CF` (configuration not stated) showed a melting point of 177 °C.
Under `CC(c1oc2ccccc2c(=O)c1-c1cccc(F)c1)n1nc(-c2ccco2)c2c(N)ncnc21` (configuration not stated) stands 234 to 236 °C.
Under `CCOC(=O)C1=C(C)NC(c2sc(C)nc2C)=NC1c1ccc(F)cc1Cl` (configuration not stated) stands 117 to 119 °C; under `c1cncc(-c2nsnc2SCCCc2cccs2)c1`, 98 to 100 °C.
Under `OCC1CCn2c(cc3ccccc32)C1` (configuration not stated) stands 110 to 111 °C; under `Nc1ncn(C[C@H](O)COC(c2ccccc2)(c2ccccc2)c2ccccc2)c(=O)n1`, 130 to 132 °C.
Consider `COc1ccc(Nc2cccc3c2C(=O)N(C2CCC(=O)NC2=O)C3=O)cc1O` (configuration not stated), for which the melting point lay in the range of 225 to 227 °C.
The compound `COc1cncc2nc(SCc3ccccc3)nn12` displayed a melting point of 114 to 116 °C.
Under `O=C(O)c1ccccc1-c1cc(-c2cccc(C(F)(F)F)c2)no1` stands 175 to 176 °C; under `O=C1c2c(O)cncc2C(=O)c2c(Cl)ccc(F)c21`, 227 to 228 °C.
The compound `O=C(Nc1nccs1)c1nc(-c2cccc3ccccc23)[nH]c1-c1ccc([N+](=O)[O-])cc1` had a melting point of 237 to 238 °C.
Under `Nc1cccnc1CCCCNc1ncc(Cc2cccnc2)c(=O)[nH]1` stands 130 to 132 °C; under `O=C(N[C@H](Cc1ccccc1)C(=O)O)OCc1cc2cc(-c3ccccc3)ccc2[nH]1`, 168 to 174 °C.
As to `CN(C)CCOC(c1ccccc1)c1ccc(C(=O)NCCCCn2cnc3c(N)nc4ccccc4c32)cc1` (configuration not stated), the melting point lay within 110 to 114 °C.
`O=Cc1cc(Br)ccc1Oc1ccc(Cl)c(Cl)c1` had a melting point of 129 to 132 °C.
Under `CC(=O)OC(C)c1cc2c(s1)C(=O)c1sccc1C2=O` (configuration not stated) stands 165 to 166 °C; under `CC(CCl)(c1cc(Cl)nnc1Cl)C(Cl)Cl` (configuration not stated), 82 to 85 °C.
Under `COc1cccc(OC)c1-c1nc2c(N[C@H]3[C@@H](C(N)=O)[C@@H]4C=C[C@H]3C4)c(Br)cnc2[nH]1` stands 194 to 197 °C; under `COc1ccc2nc3c(nc2c1)SC(C#N)=C(C#N)S3`, 154 to 156 °C; under `O=C(O)c1ccc(COc2ccc3cc(-c4ccc(-c5ccccc5)n4-c4ccccc4)ccc3c2)cc1`, 309 to 310 °C.
Regarding `CCc1ccc2c(O)c(CO)cnc2c1`, the melting point is 180 to 182 °C.
Compound `COCCOc1ccc(CCCC(=O)O)c(Oc2ncc(C(F)(F)F)cc2Cl)c1` came in with a melting point of 119 to 120 °C.
Under `CCN(C(=O)C1CC1)c1cccc(-c2ccnc3c(C(=O)c4ccco4)cnn23)c1` stands 182 to 184 °C; under `CCOC(=O)/C=C/c1cc(-c2ccc(C(F)(F)F)cc2)oc1CC`, 82 to 83 °C; under `O=P(O)(O)C(F)(F)c1ccc(CN(c2ccc(Cl)c(Cl)c2)c2nnc(-c3cccc(Oc4cccc(-c5nnn[nH]5)c4)c3)s2)cc1Br`, 232 to 235 °C.
Under `CS(=O)(=O)c1cc(Br)nc(Br)c1` stands 137 to 138 °C; under `Cn1ncc2c1-c1c(SC(C)(C)C)sc(C(=O)O)c1CC2`, 277 to 278 °C.
Under `CCCCCCCCOc1ccc(-c2ccc(C(C)O)cc2)cc1` (single isomer, unassigned; (-)) stands 124 °C.
The compound `CCc1cc(S(=O)(=O)C(Br)(Br)Br)ccc1C(N)=O` had a melting point of 175 to 177 °C.
Under `C[Si](C)(C)c1sccc1NC=O` stands 74 to 76 °C; under `Nc1ccc(Oc2ccc3ccc(Oc4ccc(N)c(O)c4)cc3c2)cc1O`, 201 to 210 °C.
As for `CCc1nn2c(N3CCNCC3)cc(C)nc2c1S(=O)(=O)c1ccccc1`, the melting point was 150 to 151 °C.
Turning to `O=C(CCCCC1CCSS1)Nc1nc(=S)ss1` (configuration not stated), the melting point was 158 to 161 °C.
Under `OCC1OC(n2cnc3c(Cl)cc(Cl)nc32)C(O)C1O` (configuration not stated) stands 148 to 150 °C; under `COc1ccc(NS(=O)(=O)c2ccc(OC)c3c2c2ccccc2n3C=O)cc1`, 190 to 192 °C.
Under `COC(=O)N[C@H](C(=O)N[C@@H](Cc1ccccc1)[C@@H](O)CN(Cc1ccc(-c2cncs2)cc1)NC(=O)OC(C)(C)C)C(C)C` stands 114 to 115 °C; under `CCc1cc2c(s1)S(=O)(=O)NC2=O`, 143 °C; under `COc1cc(NC=CS(=O)(=O)F)c(C(C)=O)cc1OC`, 142 to 146 °C.
Under `COc1ccccc1N1CCN(CCCCNc2cc(Cl)nnc2Cl)CC1` stands 155 to 170 °C; under `c1ccc2c(Nc3ccc4[nH]ncc4c3)nc(-c3ccc4c(c3)CCO4)nc2c1`, 267 to 272 °C; under `CNC(=O)C(C)C(O)(Cn1cncn1)c1ccc(Cl)cc1Cl` (configuration not stated), 242 to 244 °C.
As for `CCn1cc(-c2ccccc2)c(=O)c(-c2cccc(C)c2)c1`, the melting point was in the range of 87 to 89 °C.
Under `Cc1nc(-c2cccc(Cl)c2)n(-c2ccc(S(N)(=O)=O)cc2)n1` stands 146 to 147 °C.
Under `Cc1cc2c(c3ccc(=O)[nH]c13)O[C@@H](CN)[C@@H]2CO` (racemic) stands > 300 °C; under `CCCCC1=C(C#N)C(c2cccc3nonc23)c2c[nH]nc2N1` (configuration not stated), 200 °C.
Under `COC(=O)Nc1c(C/C=C(\C)CCC(=O)O)c(OC)c(C)c2c1C(=O)OC2` stands 155 to 158 °C; under `O=C(CC1COC1)N[C@H]1CC[C@H](CCN2CCN(c3nccc4c3OCC4)CC2)CC1`, 175 °C; under `Nc1ccc2[nH]c(C(=O)N3CCC(Cc4ccccc4)CC3)cc2c1`, 175 to 180 °C.
With `CCCc1c(C(=O)C2CCCC2)c2ccc(C(N)=O)cc2n1Cc1ccccc1Cl`, the melting point was determined as 202 °C.
Under `COc1c(C)cc(N2CCN(c3ccc([N+](=O)[O-])cc3)CC2)cc1C` stands 135 °C; under `CC(C)(C)c1cc(SC2CCN(S(=O)(=O)c3ncc(CO)[nH]3)CC2)cc(C(C)(C)C)c1O`, 122 to 123 °C.
Under `CC(C)(C)C(COC(N)=O)(NC(=O)c1ccccc1)c1c[nH]c2ccc(Br)cc12` (configuration not stated) stands 187 °C; under `c1ccc(-c2csc(-c3cccs3)n2)cc1`, 51 to 53 °C; under `CNc1nc(-c2ccc(F)cc2)cc(C(C)C)n1`, 75 to 76 °C.
Under `NCCCC1(C(N)=O)c2ccccc2-c2ccccc21` stands 198 to 200 °C.
On to `CCCc1nc2c(N)nc3cc(Br)ccc3c2n1CC1CCN(C(=O)OC(C)(C)C)CC1`, for which the melting point lay within 134 to 137 °C.
Under `CSc1ccc(-c2nc3[nH]nc(N)c3c(=O)n2-c2ccc(C)c(C)c2)cc1` stands 263 to 266 °C; under `Cn1c(Cl)nc2c3ncc(Cl)cc3ccc21`, 211 to 213 °C; under `COc1cc(CCCCCCCC2OC(=O)NC2=O)ccc1OCc1nc(-c2ccccc2)oc1C` (configuration not stated), 109 to 111 °C.
Under `CCCCc1nc2c(N)nc(C)c(C)c2n1CCCCNS(=O)(=O)N(C)C` stands 130 to 131 °C; under `CC(CCC(O)C(C)(C)O)C1CCC2C3C(O)CC4CC(O)CCC4(C)C3CC(O)C12C` (configuration not stated), 199 to 200 °C.
Under `CC(C)(C)Nc1nc(Cl)nc(Cl)n1` stands 129 to 130 °C.
On to `COc1cc2cc3c(Nc4ccc(Sc5nccn5C)c(Cl)c4)c(C#N)cnc3cc2cc1OCCN1CCOCC1`, for which the melting point is > 300 °C.
Under `CN(C)C(=O)C1=C(C(=O)Nc2cc(OC3CCCC3)c(Cl)cc2F)CCCC1` stands 136 to 138 °C; under `COc1cc(NC(C)=O)ccc1OCCO`, 157 to 159 °C.

The values are drawn from a melting point compilation (Tetko et al.; mined from patent text by program, amines drawn as free bases though some values may be those of a salt).
